Each molecule was assayed against T1, Dopamine beta-hydroxylase (Rattus norvegicus, UniProt Q05754) (assay: Inhibition of dopamine beta-hydroxylase (DbetaH) […]).
T1 sequence (Q05754 whole entry): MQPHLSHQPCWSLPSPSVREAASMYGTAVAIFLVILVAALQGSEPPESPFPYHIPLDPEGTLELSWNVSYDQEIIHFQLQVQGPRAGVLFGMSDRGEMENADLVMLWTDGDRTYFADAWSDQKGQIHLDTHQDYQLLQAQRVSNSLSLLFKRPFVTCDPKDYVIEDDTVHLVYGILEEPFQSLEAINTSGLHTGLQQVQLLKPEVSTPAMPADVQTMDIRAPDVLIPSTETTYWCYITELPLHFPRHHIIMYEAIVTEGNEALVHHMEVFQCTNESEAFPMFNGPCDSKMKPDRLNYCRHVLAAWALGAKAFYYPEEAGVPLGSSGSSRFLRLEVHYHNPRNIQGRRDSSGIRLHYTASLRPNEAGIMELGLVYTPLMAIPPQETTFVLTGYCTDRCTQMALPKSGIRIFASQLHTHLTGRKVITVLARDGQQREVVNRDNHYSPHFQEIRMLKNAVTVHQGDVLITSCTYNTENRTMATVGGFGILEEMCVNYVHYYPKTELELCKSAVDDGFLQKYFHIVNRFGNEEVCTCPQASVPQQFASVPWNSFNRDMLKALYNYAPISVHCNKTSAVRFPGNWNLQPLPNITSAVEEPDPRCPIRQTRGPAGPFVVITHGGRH

SMILES	IC50
Cc1ccc(Cn2cc[nH]c2=S)cc1	148 µM
Cc1cccc(C)c1Cn1cc[nH]c1=S	1000 µM
COc1ccc(Cn2cc[nH]c2=S)cc1F	74.1 µM
Cc1ccccc1Cn1cc[nH]c1=S	339 µM
COc1c(F)cc(Cn2cc[nH]c2=S)cc1F	36.3 µM
Oc1ccccc1Cn1cc[nH]c1=S	575 µM
COc1cc(Cl)c(Cn2cc[nH]c2=S)c(Cl)c1	155 µM
COc1ccc(Cn2cc[nH]c2=S)cc1Br	83.2 µM
COc1ccc(Cn2cc[nH]c2=S)cc1OC	339 µM
COc1ccc(Cn2cc[nH]c2=S)cc1[N+](=O)[O-]	355 µM
S=c1[nH]ccn1Cc1c(Cl)cccc1Cl	708 µM
S=c1[nH]ccn1Cc1ccccc1	33.1 µM
S=c1[nH]ccn1Cc1ccc(Br)cc1	115 µM
S=c1[nH]ccn1Cc1cccc(Cl)c1Cl	52.5 µM
Oc1ccc(Cn2cc[nH]c2=S)cc1C(F)(F)F	120 µM
Oc1cccc(Cn2cc[nH]c2=S)c1	148 µM
COc1ccc(Cn2cc[nH]c2=S)cc1C(F)(F)F	174 µM
Cc1cc(Cn2cc[nH]c2=S)ccc1O	49 µM
S=c1[nH]ccn1Cc1cccc(Cl)c1	12 µM
S=c1[nH]ccn1Cc1c(Cl)cc(Cl)cc1Cl	102 µM
COc1c(Cl)cc(Cn2cc[nH]c2=S)cc1Cl	46.8 µM
S=c1[nH]ccn1Cc1ccc(Cl)cc1	95.5 µM
O=[N+]([O-])c1cc(Cn2cc[nH]c2=S)ccc1O	30.9 µM
Oc1ccc(Cn2cc[nH]c2=S)cc1F	1.51 µM
S=c1[nH]ccn1Cc1cc(Cl)cc(Cl)c1	2.4 µM
Oc1ccc(Cn2cc[nH]c2=S)cc1Br	12 µM

Results, then the molecule that gave them:

IC50	SMILES
2 µM	Oc1ccc(Cn2cc[nH]c2=S)cc1Cl
97.7 µM	S=c1[nH]ccn1Cc1cc(Cl)ccc1Cl
46.8 µM	Fc1ccc(Cn2cc[nH]c2=S)cc1
158 µM	COc1cccc(Cn2cc[nH]c2=S)c1
28.2 µM	S=c1[nH]ccn1Cc1ccc(Cl)c(Cl)c1
200 µM	FC(F)(F)c1ccc(Cn2cc[nH]c2=S)cc1
52.5 µM	O=[N+]([O-])c1ccc(Cn2cc[nH]c2=S)cc1
355 µM	S=c1[nH]ccn1Cc1ccccc1Cl
204 µM	COc1ccc(Cn2cc[nH]c2=S)cc1
74.1 µM	COc1ccccc1Cn1cc[nH]c1=S
69.2 µM	COc1ccc(Cn2cc[nH]c2=S)cc1C
5.62 µM	Fc1cccc(Cn2cc[nH]c2=S)c1
17 µM	S=c1[nH]ccn1Cc1ccc(Cl)cc1Cl
75.9 µM	Oc1cc(Cl)c(Cn2cc[nH]c2=S)c(Cl)c1
0.0741 µM	Oc1c(F)cc(Cn2cc[nH]c2=S)cc1F
2.19 µM	Oc1ccc(Cn2cc[nH]c2=S)cc1O
0.676 µM	Oc1c(Cl)cc(Cn2cc[nH]c2=S)cc1Cl
501 µM	COc1cccc(OC)c1Cn1cc[nH]c1=S
61.7 µM	Oc1c(F)c(F)c(Cn2cc[nH]c2=S)c(F)c1F

From ChEMBL document CHEMBL1124945, “1-(substituted-benzyl)imidazole-2(3H)-thione inhibitors of dopamine beta-hydroxylase” (J Med Chem, 1990)
